Assay results taken from US4866065A, “Imidazothienopyrimidines useful in psychopharmaceutical preparations” (A/S Ferrosan, priority 1987, dated 1989).

Test system: benzodiazepine receptors
Experiment: in vivo displacement of 3H-flunitrazepam specific binding to brain benzodiazepine receptors in mice
Parameters: species or system mice (female, NMR)
Details: intraperitoneal, test substance 15 min before 3H-FNM i.v., sacrificed 20 min after 3H-FNM, forebrain
From the text: The pharmaceutical properties of the compounds of the invention can be illustrated by determining their capability for displacing radioactive labelled flunitrazepam from benzodiazepine receptors.
The displacement activity of the compounds of the invention may be found by determining the ED50 value. The ED50 value represents the dose (mg/kg) of a test substance which causes the specific binding of flunitrazepam to benzodiazepine receptors in a living brain to be reduced to 50% of the oontrol value.
Such an in vivo test is carried out as follows:
Principle. Twenty minutes after a dose of ^3 H-flunitrazepam (^3 H-FNM) (200 μCi/kg, i.v.) the amount of specific ^3 H-FNM binding to brain benzodiazepine receptors has reached its maximal value.
Test procedure. Suspensions of test substances (2 mg/ml) are prepared in 5% Duphasol-X (TM Duphar, castor oil-ethylene oxide derivative for emulsifying and solubilizing Oil and other water-insoluble substances) by sonification for 10 min using a Branson B15 microtip ultrasonifier (setting 7). Groups of three mice (female, NMR, 18-22 grams) are injected with the test substance at 100 mg/kg intraperitoneally. Fifteen minutes after test substance administration the mice are challenged with 4 μCi intravenously of ^3 H-FNM (70-90 Ci/mole) in 200 μl physiological saline. Twenty minutes after ^3 H-FNM administration mice are sacrificed by decapitation, the forebrains rapidly excised (within 30 sec) and homogenized in 12 ml of icecold 25 mM KH2 PO4, pH 7.1, using an Ultra-Turrax homogenizer fitted with an N 10 shaft. […] The amounts of radioactivity on the filters are determined by conventional scintillation counting. […]
Results. The ED50 value is determined from dose response curves. If only one dose of test substance is administered the ED50 value is calculated as follows, provided that the inhibition of specific binding is within the range of 25-75%: [formula] where Co is specific binding in controls and Cx is specific binding in mice treated with test substance.

| Compound | ED50 (dose reducing specific binding of flunitrazepam to benzodiazepine receptors in living brain to 50% of control) [mg/kg] |
| --- | --- |
| Cn1c(=O)c2sccc2n2cnc(-c3noc(C4CC4)n3)c12 [Compound 3, 3-(5-cyclopropyl-1,2,4-oxadiazol-3-yl)-4,5-dihydro-4-methyl-5-oxo-imidazo[1,5-a]thieno[2,3-e]pyrimidine] | 0.6 |
| Cn1c(=O)c2sccc2n2cnc(-c3nc(C4CC4)no3)c12 [Compound 8, 3-(3-cyclopropyl-1,2,4-oxadiazol-5-yl)-4,5-dihydro-4-methyl-5-oxo-imidazo[1,5-a]thieno[2,3-e]pyrimidine] | 0.9 |
| Cc1noc(-c2ncn3c4ccsc4c(=O)n(C)c23)n1 [Compound 10, 4,5-dihydro-4-methyl-3-(3-methyl-1,2,4-oxadiazol-5-yl)-5-oxo-imidazo[1,5-a]thieno[2,3-e]pyrimidine] | 1.8 |
